Measured values as given in patent US20240317754A1 (priority 2020, published 2024).
Entries after “also recorded” stand apart in the source; their conditions may differ. Like-named read-outs stand apart in the source and are kept apart here.

How the values were obtained:
SARS-CoV-2 replicon = experiment: microbe, parasite or virus in culture; type: cell-based; details: HEK293T cells; for inhibition at 10 µM / IC50: Severe acute respiratory syndrome coronavirus 2, HEK-293T, 60 h
SARS-CoV replicon = experiment: microbe, parasite or virus in culture; type: cell-based; details: for IC50 / inhibition at 10 µM: Severe acute respiratory syndrome coronavirus, HEK-293T, 60 h
[1] = PK study in cynomolgus monkeys; type: in vivo
Procedure: Three male cynomolgus monkeys weighing 3-5 kg were used for the pharmacokinetic study. Compound AVT006 was administered intragastrically with the dose of 10 mg/kg on day 1. After administration, the blood samples for plasma were collected from a jugular vein from each monkey over 48 hours. The plasma samples (1 mL) were obtained at predose, and 0.083, 0.25, 0.5, 1, 2, 4, 8, 24 and 48 h postdose. After recovery for three days, compound AVT006 was administered intravenously with a dose of 5 mg/kg at day 5. The blood samples for plasma were collected from a jugular vein from each monkey over 48 hours. 1 mL plasma samples were obtained at predose, and 0.083, 0.25, 0.5, 1, 2, 4, 8, 24 and 48 h postdose. Samples were treated with anticoagulant EDTA-K2 and centrifuged under 2000 g for 10 min at 4° C. The supernatants (plasma) were collected and stored at −65° C. for future analysis. The drug concentration in each sample was tested by Watson LIMS 7.5 SP1 HPLC/MS. The pharmacokinetic parameters were calculated using WinNonlin 6.3 software.

MHV-A59 = experiment: In vivo efficacy in murine hepatitis virus (MHV-A59) infected BALB/c mice
Source text: • Mice: SPF-grade male BALB/c mice, 100, weighing 18-22 g. • Operation: The experimental mice were infected with MHV-A59 nasal drops and randomly divided into ten groups (n=10 each).
The mice were monitored daily for disease symptoms, including body weight, clinical symptoms, and death, for 14 days. Record the body weight changes of mice in each treatment group after virus infection (FIG. 4A) and survival curves (FIG. 4B). The fluorescence quantitative PCR method was used to determine the virus titer in mouse liver 72 hours after virus infection (FIG. 4C).

SARS-CoV-2 = experiment: In vivo efficacy against SARS-CoV-2 in hACE2 humanized mice
SARS-CoV-2 (B.1) = experiment: microbe, parasite or virus in culture; type: cell-based
[2] = as reported by NIH OpenData Portal; species not printed (context non-human primates); cited from earlier work
[3] = male, cynomolgus monkey, plasma, IV 5 mg/kg, analyzed ATV006

CC(C)C(=O)OC[C@H]1O[C@@](C#N)(c2ccc3c(N)ncnn23)[C@H](O)[C@@H]1O [ATV006, ((2R,3S,4R,5R)-5-(4-aminopyrrolo[2,1-f][1,2,4]triazin-7-yl)-5-cyano-3,4-dihydroxytetrahydrofuran-2-yl)methyl isobutyrate]
antiviral activity relative to GS-441524 (SARS-CoV-2 replicon; in words): lower IC50 values and higher antiviral activity | inhibition of SARS-CoV-2 replicon replication (SARS-CoV-2 replicon; in words): significant inhibitory effects | inhibition at 10 µM (SARS-CoV-2 replicon): 98.6% | IC50 (SARS-CoV-2 replicon): 510 nM | activity relative to GS-441524 (SARS-CoV replicon): twice that of compound GS-441524 | IC50 (SARS-CoV replicon): 570 nM | inhibition at 10 µM (SARS-CoV replicon): 99.2% | metabolism to GS-441524 ([1]; in words): quickly metabolized into the active metabolite GS-441524 | AUC(0-inf) [1, 3]: 19.6 ± 5.43 ng·h/mL | AUC(0-t) [1, 3]: 19.4 ± 5.35 ng·h/mL | Cmax [1, 3]: 132 ± 37.4 ng/mL | Tmax [1, 3]: 5 min | half-life [1, 3]: 4.15 ± 0.446 min | day after infection on which mice began to die (MHV-A59; BALB/c mice, 2 mg/kg IG): 4 days | median death rate (MHV-A59; BALB/c mice, 2 mg/kg IG): 6 days | mortality rate (MHV-A59; BALB/c mice, 2 mg/kg IG, by day 10 after infection, vs control group p=0.0291): 100% | survival (MHV-A59; BALB/c mice, 2 mg/kg IG, in words, 2 mg/kg): positive effect in prolonging the survival time of animals; also recorded: increased the survival rate | death and weight loss of mice (MHV-A59; BALB/c mice, ATV006 IG at doses except 2 mg/kg (5-50 mg/kg), 14 days, in words): can avoid the death and weight loss of mice at low doses | antiviral activity in vivo compared with GS-441524 and RDV (MHV-A59; BALB/c mice, in words): better antiviral activity in vivo | replication of the virus in the liver (MHV-A59; BALB/c mice, virus titer in liver 72 hours after infection, in words): significantly inhibit the replication of the virus in the liver | antiviral effect (MHV-A59; mice, medium dose 5 mg/kg-50 mg/kg, in words): excellent antiviral effect in a dose-dependent manner | amount of viral genome (N gene) in lung tissue (SARS-CoV-2): significantly lower than that in the control group | amount of viral subgenome (subgenomic N) in lung tissue (SARS-CoV-2): significantly lower than that in the control group | IC50 (SARS-CoV-2 (B.1); Severe acute respiratory syndrome coronavirus 2, Vero C1008, 48 h): 1360 nM

N#C[C@@]1(c2ccc3c(N)ncnn23)O[C@H](CO)[C@@H](O)[C@H]1O [GS-441524, reference compound]
inhibition at 10 µM (SARS-CoV-2 replicon): 99.8% | IC50 (SARS-CoV-2 replicon): 950 nM | bioavailability [2]: 8.3% | IC50 (SARS-CoV replicon): 1100 nM | inhibition at 10 µM (SARS-CoV replicon): 99.8% | IC50 (SARS-CoV-2 (B.1)): 2280 nM
